Measurements as given in ChEMBL document CHEMBL5543175, “Discovery of Selective Proteolysis-Targeting Chimera Degraders Targeting PTP1B as Long-Term Hypoglycemic Agents” (J Med Chem, 2024).
The source made the active and inactive calls. The rule behind the calls is not given here.

Tests used:
[1] = target: T1, Protein cereblon/Tyrosine-protein phosphatase non-receptor type 1 (Homo sapiens, UniProt P18031+Q96SW2); test: PROTAC activity at PTP1B/CRBN in insulin treated human HepG2 cells assessed as protein degradation at 1 nM incubated for 72 hrs by Western blot analysis relative to control; assay type: cell-based
Target sequence in this assay (P18031 whole entry, looked up): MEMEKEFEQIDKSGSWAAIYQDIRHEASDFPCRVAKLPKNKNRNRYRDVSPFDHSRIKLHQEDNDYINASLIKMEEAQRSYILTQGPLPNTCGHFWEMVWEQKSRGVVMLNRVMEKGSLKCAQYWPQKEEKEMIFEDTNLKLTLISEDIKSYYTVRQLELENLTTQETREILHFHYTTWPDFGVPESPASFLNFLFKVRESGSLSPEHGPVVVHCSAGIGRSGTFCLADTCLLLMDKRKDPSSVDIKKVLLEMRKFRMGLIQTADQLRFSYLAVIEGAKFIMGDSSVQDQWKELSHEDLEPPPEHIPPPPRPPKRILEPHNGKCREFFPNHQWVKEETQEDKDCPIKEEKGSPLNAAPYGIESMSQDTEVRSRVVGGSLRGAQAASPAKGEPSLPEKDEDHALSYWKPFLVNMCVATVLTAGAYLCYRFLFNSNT
Target sequence in this assay (Q96SW2 whole entry, looked up): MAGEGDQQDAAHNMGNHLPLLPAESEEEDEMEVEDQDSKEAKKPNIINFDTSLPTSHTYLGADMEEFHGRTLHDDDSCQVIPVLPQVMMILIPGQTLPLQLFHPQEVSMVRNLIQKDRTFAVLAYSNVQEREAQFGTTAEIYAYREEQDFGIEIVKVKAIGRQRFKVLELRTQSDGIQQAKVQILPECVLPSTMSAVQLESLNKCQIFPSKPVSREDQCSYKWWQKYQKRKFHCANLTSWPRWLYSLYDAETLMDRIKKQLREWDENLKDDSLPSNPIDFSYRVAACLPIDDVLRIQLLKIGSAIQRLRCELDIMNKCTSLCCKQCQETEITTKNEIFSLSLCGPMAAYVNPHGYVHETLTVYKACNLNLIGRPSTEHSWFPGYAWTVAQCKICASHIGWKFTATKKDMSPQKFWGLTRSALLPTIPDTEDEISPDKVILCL

[2] = target: T1, Protein cereblon/Tyrosine-protein phosphatase non-receptor type 1; test: PROTAC activity at PTP1B/CRBN in insulin treated human HepG2 cells assessed as protein degradation at 5 nM incubated for 72 hrs by Western blot analysis relative to control; assay type: cell-based
Target sequence in this assay (P18031 whole entry, looked up): as the sequence (P18031 whole entry, looked up) above
Target sequence in this assay (Q96SW2 whole entry, looked up): as the sequence (Q96SW2 whole entry, looked up) above

[3] = target: T1, Protein cereblon/Tyrosine-protein phosphatase non-receptor type 1; test: PROTAC activity at PTP1B/CRBN in insulin treated human HepG2 cells assessed as protein degradation at 5 nM incubated for 48 hrs by Western blot analysis relative to control; assay type: cell-based
Target sequence in this assay (P18031 whole entry, looked up): as the sequence (P18031 whole entry, looked up) above
Target sequence in this assay (Q96SW2 whole entry, looked up): as the sequence (Q96SW2 whole entry, looked up) above

[4] = target: T1, Protein cereblon/Tyrosine-protein phosphatase non-receptor type 1; test: PROTAC activity at PTP1B/CRBN in insulin treated human HepG2 cells assessed as protein degradation at 500 nM incubated for 48 hrs by Western blot analysis relative to control; assay type: cell-based
Target sequence in this assay (P18031 whole entry, looked up): as the sequence (P18031 whole entry, looked up) above
Target sequence in this assay (Q96SW2 whole entry, looked up): as the sequence (Q96SW2 whole entry, looked up) above

[5] = target: T1, Protein cereblon/Tyrosine-protein phosphatase non-receptor type 1; test: PROTAC activity at PTP1B/CRBN in insulin treated human HepG2 cells assessed as protein degradation at 5000 nM incubated for 48 hrs by Western blot analysis relative to control; assay type: cell-based
Target sequence in this assay (P18031 whole entry, looked up): as the sequence (P18031 whole entry, looked up) above
Target sequence in this assay (Q96SW2 whole entry, looked up): as the sequence (Q96SW2 whole entry, looked up) above

[6] = target: T1, Protein cereblon/Tyrosine-protein phosphatase non-receptor type 1; test: PROTAC activity at PTP1B/CRBN in insulin treated human HepG2 cells assessed as protein degradation at 625 nM incubated for 48 hrs by Western blot analysis relative to control; assay type: cell-based
Target sequence in this assay (P18031 whole entry, looked up): as the sequence (P18031 whole entry, looked up) above
Target sequence in this assay (Q96SW2 whole entry, looked up): as the sequence (Q96SW2 whole entry, looked up) above

[7] = system: Mus musculus; test: Anti-diabetic activity in KM mouse assessed as reduction in blood glucose measured for 0 to 120 mins at 40 mg/kg single dose by oral glucose tolerance test (oGTT) relative to control; assay type: functional; settings: time 0-120 min
[8] = target: T1, Protein cereblon/Tyrosine-protein phosphatase non-receptor type 1; test: PROTAC activity at PTP1B/CRBN in insulin treated human HepG2 cells assessed as protein degradation at 50 nM incubated for 48 hrs by Western blot analysis relative to control; assay type: cell-based
[9] = target: T1, Protein cereblon/Tyrosine-protein phosphatase non-receptor type 1; test: PROTAC activity at PTP1B/CRBN in insulin treated human HepG2 cells assessed as protein degradation at 125 nM incubated for 48 hrs by Western blot analysis relative to control; assay type: cell-based
[10] = target: T1, Protein cereblon/Tyrosine-protein phosphatase non-receptor type 1; test: PROTAC activity at PTP1B/CRBN in insulin treated human HepG2 cells assessed as protein degradation at 25 nM incubated for 48 hrs by Western blot analysis relative to control; assay type: cell-based
[11] = target: T1, Protein cereblon/Tyrosine-protein phosphatase non-receptor type 1; test: PROTAC activity at PTP1B/CRBN in insulin treated human HepG2 cells assessed as protein degradation at 1250 nM incubated for 72 hrs by Western blot analysis relative to control; assay type: cell-based
[12] = target: T1, Protein cereblon/Tyrosine-protein phosphatase non-receptor type 1; test: PROTAC activity at PTP1B/CRBN in insulin treated human HepG2 cells assessed as protein degradation at 1250 nM incubated for 48 hrs by Western blot analysis relative to control; assay type: cell-based
[13] = target: T1, Protein cereblon/Tyrosine-protein phosphatase non-receptor type 1; test: PROTAC activity at PTP1B/CRBN in insulin treated human HepG2 cells assessed as protein degradation incubated for 72 hrs by Western blot analysis; assay type: cell-based
[14] = target: T1, Protein cereblon/Tyrosine-protein phosphatase non-receptor type 1; test: PROTAC activity at PTP1B/CRBN in insulin treated human HepG2 cells assessed as protein degradation at 625 nM incubated for 72 hrs by Western blot analysis relative to control; assay type: cell-based
[15] = target: T1, Protein cereblon/Tyrosine-protein phosphatase non-receptor type 1; test: PROTAC activity at PTP1B/CRBN in insulin treated human HepG2 cells assessed as protein degradation at 125 nM incubated for 72 hrs by Western blot analysis relative to control; assay type: cell-based
[16] = target: T1, Protein cereblon/Tyrosine-protein phosphatase non-receptor type 1; test: PROTAC activity at PTP1B/CRBN in insulin treated human HepG2 cells assessed as protein degradation at 1 nM incubated for 48 hrs by Western blot analysis relative to control; assay type: cell-based
[17] = target: T1, Protein cereblon/Tyrosine-protein phosphatase non-receptor type 1; test: PROTAC activity at PTP1B/CRBN in insulin treated human HepG2 cells assessed as protein degradation at 25 nM incubated for 72 hrs by Western blot analysis relative to control; assay type: cell-based
[18] = target: T1, Protein cereblon/Tyrosine-protein phosphatase non-receptor type 1; test: PROTAC activity at PTP1B/CRBN in insulin treated human HepG2 cells assessed as protein degradation incubated for 48 hrs by Western blot analysis; assay type: cell-based
[19] = system: HepG2; test: Hypoglycemic activity in human HepG2 cells assessed as upregulation of IRS-1 expression at 250 to 500 nM incubated for 24 hrs by Western blot analysis; assay type: functional, cell-based; settings: dose 250-500 nM
[20] = system: HepG2; test: Hypoglycemic activity in human HepG2 cells assessed as upregulation of PI3K expression at 250 to 500 nM incubated for 24 hrs by Western blot analysis; assay type: functional, cell-based; settings: dose 250-500 nM
[21] = system: Mus musculus; test: Anti-diabetic activity in KM mouse assessed as reduction in area under the curve of blood glucose measured for 0 to 120 mins at 10 mg/kg single dose by oral glucose tolerance test (oGTT); assay type: functional; design: scale not given: the % may be the effect or the level left; settings: time 0-120 min
[22] = target: T1, Protein cereblon/Tyrosine-protein phosphatase non-receptor type 1; test: PROTAC activity at PTP1B/CRBN in insulin treated human HepG2 cells assessed as protein degradation at 100 nM incubated for 24 hrs in presence of pomalidomide by Western blot analysis; assay type: cell-based
[23] = system: Mus musculus; test: Anti-diabetic activity in KM mouse assessed as reduction in area under the curve of blood glucose measured for 0 to 120 mins at 40 mg/kg single dose by oral glucose tolerance test (oGTT); assay type: functional; design: scale not given: the % may be the effect or the level left; settings: time 0-120 min
[24] = target: T1, Protein cereblon/Tyrosine-protein phosphatase non-receptor type 1; test: PROTAC activity at PTP1B/CRBN in insulin treated human HepG2 cells assessed as protein degradation at 100 nM incubated for 24 hrs in presence of […] by Western blot analysis; assay type: cell-based
[25] = target: Protein cereblon/Tyrosine-protein phosphatase non-receptor type 6 (Homo sapiens) (UniProt P29350+Q96SW2); test: PROTAC activity at SHP1/CRBN in insulin treated human HepG2 cells assessed as protein degradation at 250 to 500 nM incubated for 24 hrs by Western blot analysis; assay type: cell-based; settings: dose 250-500 nM
[26] = system: HepG2; test: Hypoglycemic activity in human HepG2 cells assessed as upregulation of Akt phosphorylation at 250 to 500 nM incubated for 24 hrs by Western blot analysis; assay type: functional, cell-based; settings: dose 250-500 nM
[27] = target: Protein cereblon/Tyrosine-protein phosphatase non-receptor type 11 (Homo sapiens) (UniProt Q06124+Q96SW2); test: PROTAC activity at SHP2/CRBN in insulin treated human HepG2 cells assessed as protein degradation at 250 to 500 nM incubated for 24 hrs by Western blot analysis; assay type: cell-based; settings: dose 250-500 nM
[28] = target: T1, Protein cereblon/Tyrosine-protein phosphatase non-receptor type 1; test: PROTAC activity at PTP1B/CRBN in insulin treated human HepG2 cells assessed as protein degradation at 100 nM incubated for 24 hrs in presence of MG-132 by Western blot analysis; assay type: cell-based
[29] = target: T1, Protein cereblon/Tyrosine-protein phosphatase non-receptor type 1; test: PROTAC activity at PTP1B/CRBN in insulin treated human HepG2 cells assessed as protein degradation half life at 500 nM by Western blot analysis; assay type: cell-based
[30] = target: Protein cereblon/Tyrosine-protein phosphatase non-receptor type 22 (Homo sapiens) (UniProt Q9Y2R2+Q96SW2); test: PROTAC activity at LYP/CRBN in insulin treated human HepG2 cells assessed as protein degradation at 250 to 500 nM incubated for 24 hrs by Western blot analysis; assay type: cell-based; settings: dose 250-500 nM
[31] = target: Protein cereblon/Receptor-type tyrosine-protein phosphatase C (Homo sapiens) (UniProt P08575+Q96SW2); test: PROTAC activity at CD45/CRBN in insulin treated human HepG2 cells assessed as protein degradation at 250 to 500 nM incubated for 24 hrs by Western blot analysis; assay type: cell-based; settings: dose 250-500 nM
[32] = target: T1, Protein cereblon/Tyrosine-protein phosphatase non-receptor type 1; test: PROTAC activity at PTP1B/CRBN in insulin treated human HepG2 cells assessed as protein degradation at 250 to 500 nM incubated for 24 hrs by Western blot analysis; assay type: cell-based; settings: dose 250-500 nM
[33] = system: Mus musculus; test: Anti-diabetic activity in KM mouse assessed as reduction in area under the curve of blood glucose measured for 0 to 120 mins at 20 mg/kg single dose by oral glucose tolerance test (oGTT); assay type: functional; design: scale not given: the % may be the effect or the level left; settings: time 0-120 min

Sequence of Protein cereblon/Tyrosine-protein phosphatase non-receptor type 22 (Homo sapiens) (Q96SW2 whole entry, looked up): as above
Sequence of Protein cereblon/Tyrosine-protein phosphatase non-receptor type 22 (Homo sapiens) (Q9Y2R2 whole entry, looked up): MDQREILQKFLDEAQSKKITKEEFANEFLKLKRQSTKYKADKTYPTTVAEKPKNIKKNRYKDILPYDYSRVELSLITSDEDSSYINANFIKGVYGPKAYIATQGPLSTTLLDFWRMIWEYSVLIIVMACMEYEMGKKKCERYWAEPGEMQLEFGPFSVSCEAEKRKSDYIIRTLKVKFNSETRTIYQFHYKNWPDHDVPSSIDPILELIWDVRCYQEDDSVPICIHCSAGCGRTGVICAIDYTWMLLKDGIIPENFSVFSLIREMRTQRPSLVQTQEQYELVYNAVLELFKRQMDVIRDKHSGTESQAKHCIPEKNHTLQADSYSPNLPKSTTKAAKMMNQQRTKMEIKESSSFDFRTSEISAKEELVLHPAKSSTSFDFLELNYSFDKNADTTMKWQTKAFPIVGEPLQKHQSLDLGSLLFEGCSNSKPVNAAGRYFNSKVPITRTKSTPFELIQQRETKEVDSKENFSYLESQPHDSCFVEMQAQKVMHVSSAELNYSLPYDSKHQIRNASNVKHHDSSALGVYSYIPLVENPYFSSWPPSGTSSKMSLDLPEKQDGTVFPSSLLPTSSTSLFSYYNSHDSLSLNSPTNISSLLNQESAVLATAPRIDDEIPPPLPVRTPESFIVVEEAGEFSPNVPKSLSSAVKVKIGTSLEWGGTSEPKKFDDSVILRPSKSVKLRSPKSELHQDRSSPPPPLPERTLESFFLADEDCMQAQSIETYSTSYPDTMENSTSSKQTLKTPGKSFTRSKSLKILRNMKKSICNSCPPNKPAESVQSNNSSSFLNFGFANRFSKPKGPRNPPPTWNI
Sequence of Protein cereblon/Receptor-type tyrosine-protein phosphatase C (Homo sapiens) (P08575 whole entry, looked up): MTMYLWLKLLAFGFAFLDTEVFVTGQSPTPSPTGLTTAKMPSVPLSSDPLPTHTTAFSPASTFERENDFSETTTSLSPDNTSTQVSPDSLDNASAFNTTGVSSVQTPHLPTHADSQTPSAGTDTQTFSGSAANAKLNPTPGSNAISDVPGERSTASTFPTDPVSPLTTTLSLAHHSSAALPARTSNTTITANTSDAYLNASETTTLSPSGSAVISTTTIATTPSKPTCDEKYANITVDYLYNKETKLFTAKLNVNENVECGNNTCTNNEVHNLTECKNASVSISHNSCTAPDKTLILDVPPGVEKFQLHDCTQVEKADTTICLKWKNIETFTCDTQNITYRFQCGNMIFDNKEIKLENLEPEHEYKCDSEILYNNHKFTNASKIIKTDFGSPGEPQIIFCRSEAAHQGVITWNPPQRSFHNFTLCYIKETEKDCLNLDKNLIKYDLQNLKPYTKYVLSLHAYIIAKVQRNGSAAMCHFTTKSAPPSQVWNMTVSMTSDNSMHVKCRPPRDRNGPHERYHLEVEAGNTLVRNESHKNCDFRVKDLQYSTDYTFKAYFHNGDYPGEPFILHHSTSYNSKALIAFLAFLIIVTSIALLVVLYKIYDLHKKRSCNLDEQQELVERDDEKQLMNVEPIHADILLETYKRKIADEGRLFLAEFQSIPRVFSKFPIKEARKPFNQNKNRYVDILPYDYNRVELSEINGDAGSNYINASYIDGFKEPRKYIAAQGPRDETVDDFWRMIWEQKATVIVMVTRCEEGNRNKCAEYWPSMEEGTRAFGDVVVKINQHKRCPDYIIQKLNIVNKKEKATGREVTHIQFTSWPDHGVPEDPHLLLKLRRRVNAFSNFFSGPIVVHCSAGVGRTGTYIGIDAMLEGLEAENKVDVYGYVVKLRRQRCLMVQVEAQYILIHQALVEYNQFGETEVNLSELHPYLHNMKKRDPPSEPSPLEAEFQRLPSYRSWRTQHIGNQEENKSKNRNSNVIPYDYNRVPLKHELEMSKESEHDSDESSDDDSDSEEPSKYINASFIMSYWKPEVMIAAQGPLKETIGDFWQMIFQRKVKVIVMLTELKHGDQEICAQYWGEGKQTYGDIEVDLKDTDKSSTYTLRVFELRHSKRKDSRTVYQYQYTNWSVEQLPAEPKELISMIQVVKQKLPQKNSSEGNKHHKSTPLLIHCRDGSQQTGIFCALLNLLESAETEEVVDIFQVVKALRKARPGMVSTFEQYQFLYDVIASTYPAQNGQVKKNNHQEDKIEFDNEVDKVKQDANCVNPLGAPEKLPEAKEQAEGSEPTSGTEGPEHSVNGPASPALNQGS
Sequence of Protein cereblon/Receptor-type tyrosine-protein phosphatase C (Homo sapiens) (Q96SW2 whole entry, looked up): as the sequence (Q96SW2 whole entry, looked up) above

Activity [1]	Activity [2]	Activity [3]	Activity [4]	Activity [5]	Activity [6]	Activity [8]	Activity [9]	Activity [10]	Activity [11]	Activity [12]	Activity [13]	DC50 [13]	Activity [14]	Activity [15]	Activity [16]	Activity [17]	Activity [18]	DC50 [18]	Compound	inhibition in vivo at 40 mg/kg [7]	also measured
< 5%	23%	38%	53%	31%	51%	61%	36%	< 5%	24%	78%	Dose-Dependent Effect	3640 nM	25%	41%	24%	58%	Dose-Dependent Effect	540 nM	CC1(C)CC[C@]2(C(=O)NCCCOCCOCCOCCCNc3cccc4c3C(=O)N(C3CCC(=O)NC3=O)C4=O)CC[C@]3(C)C(=CC[C@@H]4[C@@]5(C)CC[C@H](O)C(C)(C)[C@@H]5CC[C@]43C)[C@@H]2C1 (stereo partly drawn)	–	–
< 5%	40%	51%	27%	20%	43%	20%	46%	51%	48%	71%	Dose-Dependent Effect	50 nM	43%	58%	8%	58%	Dose-Dependent Effect	200 nM	CC1(C)CC[C@]2(C(=O)NCCCCCCOCCOCCOCCOCCCCCC(=O)Nc3cccc4c3C(=O)N(C3CCC(=O)NC3=O)C4=O)CC[C@]3(C)C(=CC[C@@H]4[C@@]5(C)CC[C@H](O)C(C)(C)[C@@H]5CC[C@]43C)[C@@H]2C1 (stereo partly drawn)	29%	Activity [19]: Active; Activity [20]: Active; Activity [21]: 8.6%; Activity [22]: Active; Activity [23]: 21.8%; Activity [24]: inactive; Activity [25]: inactive; Activity [26]: Active; Activity [27]: inactive; Activity [28]: inactive; T1/2 [29]: 4 h; Activity [30]: inactive; Activity [31]: inactive; Activity [32]: 100%; Activity [33]: 14.8%
5%	54%	17%	55%	58%	45%	75%	8%	< 5%	53%	62%	Dose-Dependent Effect	200 nM	47%	43%	33%	66%	Dose-Dependent Effect	770 nM	CC1(C)CC[C@]2(C(=O)NCCCOCCCCOCCCNc3cccc4c3C(=O)N(C3CCC(=O)NC3=O)C4=O)CC[C@]3(C)C(=CC[C@@H]4[C@@]5(C)CC[C@H](O)C(C)(C)[C@@H]5CC[C@]43C)[C@@H]2C1 (stereo partly drawn)	–	–

The remaining lines, values behind:

Compound	Activity [1]	Activity [2]	Activity [3]	Activity [4]	Activity [5]	Activity [6]	Activity [8]	Activity [9]	Activity [10]	Activity [11]	Activity [12]	Activity [13]	DC50 [13]	Activity [14]	Activity [15]	Activity [16]	Activity [17]	Activity [18]	DC50 [18]	inhibition in vivo at 40 mg/kg [7]	also measured
C[C@H]1[C@H](C)CC[C@]2(C(=O)NCCCCCCOCCOCCOCC(=O)Nc3cccc4c3C(=O)N(C3CCC(=O)NC3=O)C4=O)CC[C@]3(C)C(=CC[C@@H]4[C@@]5(C)CC[C@H](O)C(C)(C)[C@@H]5CC[C@]43C)[C@H]12 (stereo partly drawn)	33%	57%	83%	53%	< 5%	21%	46%	17%	33%	56%	77%	Dose-Dependent Effect	40 nM	49%	55%	8%	50%	Dose-Dependent Effect	250 nM	18.3%	–
C[C@H]1[C@H](C)CC[C@]2(C(=O)NCCCOCCOCCOCCCNc3cccc4c3C(=O)N(C3CCC(=O)NC3=O)C4=O)CC[C@]3(C)C(=CC[C@@H]4[C@@]5(C)CC[C@H](O)C(C)(C)[C@@H]5CC[C@]43C)[C@H]12 (stereo partly drawn)	–	–	37%	29%	36%	–	51%	–	–	–	–	–	–	–	–	–	–	–	–	15.3%	–
